Measured values from patent publication US20230322846A9, “NEUROACTIVE STEROIDS AND THEIR METHODS OF USE” (SAGE THERAPEUTICS, INC., priority 2018, published 2023).
pIC50: −log10 of the molar value.

molecular target: [35S]-TBPS binding, rat brain cortical membranes; test: Steroid inhibition of [35S]-TBPS binding; conditions: 3 nM [35S]-TBPS, in the presence of 5 mM GABA
Method in brief: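 Rat cortical P2 membranes incubated 90 min at room temperature with 3 nM [35S]-TBPS, […] and test compound (0.5% DMSO final) in NaCl/Na–K phosphate pH 7.4; nonspecific binding with […]. Filter-bound radioactivity counted; IC50 and Imax from nonlinear fits, mean ± SEM.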

CCC[C@@]1(O)CC[C@@]2(CC)[C@H](CC[C@H]3[C@@H]4CC[C@H]([C@H](C)Cn5cc(C#N)cn5)[C@@]4(C)CC[C@@H]32)C1 [Example 302, 1-((S)-2-((3R,5R,8S,9S,10S,13S,14S,17R)-10-ethyl-3-hydroxy-13-methyl-3-propylhexadecahydro-1H-cyclopenta[a]phenanthren-17-yl)propyl)-1H-pyrazole-4-carbonitrile] and CCC[C@@]1(O)CC[C@@]2(C)[C@H](CC[C@@H]3[C@@H]2CC[C@]2(C)[C@@H]([C@@H](C)Cn4cc(C#N)cn4)CC[C@@H]32)C1 [Example 307, 1-((R)-2-((3R,5R,8R,9S,10S,13S,14S,17R)-3-hydroxy-10,13-dimethyl-3-propylhexadecahydro-1H-cyclopenta[a]phenanthren-17-yl)propyl)-1H-pyrazole-4-carbonitrile] cannot be ordered by pIC50: greater than 7.00 for the first, greater than 7.00 for the second.

C[C@H](Cn1cc(C#N)cn1)[C@H]1CC[C@H]2[C@@H]3CC[C@@H]4C[C@@](O)(CC5CC5)CC[C@@H]4[C@H]3CC[C@]12C [Example 304, 1-((S)-2-((3S,5R,8R,9R,10S,13S,14S,17R)-3-(cyclopropylmethyl)-3-hydroxy-13-methylhexadecahydro-1H-cyclopenta[a]phenanthren-17-yl)propyl)-1H-pyrazole-4-carbonitrile] and CCCC[C@@]1(O)CC[C@H]2[C@H](CC[C@@H]3[C@@H]2CC[C@]2(C)[C@@H]([C@H](C)Cn4cc(C#N)cn4)CC[C@@H]32)C1 [Example 312] cannot be ordered by pIC50: greater than 7.00 for the first, greater than 7.00 for the second.

C[C@@H](Cn1cc(C#N)cn1)[C@H]1CC[C@H]2[C@@H]3CC[C@@H]4C[C@](C)(O)CC[C@]4(C)[C@H]3CC[C@]12C [Example 305, 1-((R)-2-((3R,5R,8R,9S,10S,13S,14S,17R)-3-hydroxy-3,10,13-trimethylhexadecahydro-1H-cyclopenta[a]phenanthren-17-yl)propyl)-1H-pyrazole-4-carbonitrile] and C[C@H](Cn1cc(C#N)cn1)[C@H]1CC[C@H]2[C@@H]3CC[C@@H]4C[C@](C)(O)CC[C@]4(C)[C@H]3CC[C@]12C [Example 306, 1-((S)-2-((3R,5R,8R,9S,10S,13S,14S,17R)-3-hydroxy-3,10,13-trimethylhexadecahydro-1H-cyclopenta[a]phenanthren-17-yl)propyl)-1H-pyrazole-4-carbonitrile] cannot be ordered by pIC50: greater than 7.00 for the first, greater than 7.00 for the second.

CCC[C@@]1(O)CC[C@@]2(C)[C@H](CC[C@@H]3[C@@H]2CC[C@]2(C)[C@@H]([C@H](C)Cn4cc(C#N)cn4)CC[C@@H]32)C1 [Example 308, 1-((S)-2-((3R,5R,8R,9S,10S,13S,14S,17R)-3-hydroxy-10,13-dimethyl-3-propylhexadecahydro-1H-cyclopenta[a]phenanthren-17-yl)propyl)-1H-pyrazole-4-carbonitrile] and CCC[C@@]1(O)CC[C@@]2(C)[C@H](CC[C@@H]3[C@@H]2[C@@H](O)C[C@]2(C)[C@@H]([C@@H](C)Cn4cc(C#N)cn4)CC[C@@H]32)C1 [Example 309, 1-((R)-2-((3R,5R,8S,9S,10S,11S,13S,14S,17R)-3,11-dihydroxy-10,13-dimethyl-3-propylhexadecahydro-1H-cyclopenta[a]phenanthren-17-yl)propyl)-1H-pyrazole-4-carbonitrile] cannot be ordered by pIC50: greater than 7.00 for the first, greater than 7.00 for the second.

CCC[C@@]1(O)CC[C@@]2(C)[C@H](CC[C@@H]3[C@@H]2[C@@H](O)C[C@]2(C)[C@@H]([C@H](C)Cn4cc(C#N)cn4)CC[C@@H]32)C1 [Example 310, 1-((S)-2-((3R,5R,8S,9S,10S,11S,13S,14S,17R)-3,11-dihydroxy-10,13-dimethyl-3-propylhexadecahydro-1H-cyclopenta[a]phenanthren-17-yl)propyl)-1H-pyrazole-4-carbonitrile] and COC[C@@]1(O)CC[C@@]2(C)[C@H](CC[C@@H]3[C@@H]2[C@@H](O)C[C@]2(C)[C@@H]([C@@H](C)Cn4cc(C#N)cn4)CC[C@@H]32)C1 [Example 327, 1-((R)-2-((3R,5R,8S,9S,10S,11S,13S,14S,17R)-3,11-dihydroxy-3-(methoxymethyl)-10,13-dimethylhexadecahydro-1H-cyclopenta[a]phenanthren-17-yl)propyl)-1H-pyrazole-4-carbonitrile] fall in the same range of pIC50: 6.00 to 7.00 for the first, 6.00 to 7.00 for the second.

First: CCC[C@@]1(O)CC[C@@]2(C)[C@H](CC[C@@H]3[C@@H]2CC[C@]2(C)[C@@H]([C@@H](C)Cn4nnc(C)n4)CC[C@@H]32)C1 [Example 313, (3R,5R,8R,9S,10S,13S,14S,17R)-10,13-dimethyl-17-((R)-1-(5-methyl-2H-tetrazol-2-yl)propan-2-yl)-3-propylhexadecahydro-1H-cyclopenta[a]phenanthren-3-ol]
Second: CCC[C@@]1(O)CC[C@@]2(C)[C@H](CC[C@@H]3[C@@H]2CC[C@]2(C)[C@@H]([C@H](C)Cn4nnc(C)n4)CC[C@@H]32)C1 [Example 314, (3R,5R,8R,9S,10S,13S,14S,17R)-10,13-dimethyl-17-((S)-1-(5-methyl-2H-tetrazol-2-yl)propan-2-yl)-3-propylhexadecahydro-1H-cyclopenta[a]phenanthren-3-ol]
The pIC50 of the first is higher: greater than 7.00 for the first, 6.00 to 7.00 for the second. The first is the more potent here.

CCC[C@@]1(O)CC[C@@]2(C)[C@H](CC[C@@H]3[C@@H]2CC[C@]2(C)[C@@H]([C@@H](C)Cn4nnnc4C)CC[C@@H]32)C1 [Example 315, (3R,5R,8R,9S,10S,13S,14S,17R)-10,13-dimethyl-17-((R)-1-(5-methyl-1H-tetrazol-1-yl)propan-2-yl)-3-propylhexadecahydro-1H-cyclopenta[a]phenanthren-3-ol] and CCC[C@@]1(O)CC[C@@]2(C)[C@H](CC[C@@H]3[C@@H]2CC[C@]2(C)[C@@H]([C@H](C)Cn4nnnc4C)CC[C@@H]32)C1 [Example 316, (3R,5R,8R,9S,10S,13S,14S,17R)-10,13-dimethyl-17-((S)-1-(5-methyl-1H-tetrazol-1-yl)propan-2-yl)-3-propylhexadecahydro-1H-cyclopenta[a]phenanthren-3-ol] cannot be ordered by pIC50: greater than 7.00 for the first, greater than 7.00 for the second.

CC[C@]12CC[C@H]3[C@@H](CC[C@@H]4C[C@](C)(O)CC[C@@H]43)[C@@H]1CC[C@@H]2[C@@H](C)Cn1cc(C#N)cn1 [Example 317, 1-((R)-2-((3R,5R,8R,9R,10S,13S,14S,17R)-13-ethyl-3-hydroxy-3-methylhexadecahydro-1H-cyclopenta[a]phenanthren-17-yl)propyl)-1H-pyrazole-4-carbonitrile] and CC[C@]12CC[C@H]3[C@@H](CC[C@@H]4C[C@](C)(O)CC[C@@H]43)[C@@H]1CC[C@@H]2[C@H](C)Cn1cc(C#N)cn1 [Example 318, 1-((S)-2-((3R,5R,8R,9R,10S,13S,14S,17R)-13-ethyl-3-hydroxy-3-methylhexadecahydro-1H-cyclopenta[a]phenanthren-17-yl)propyl)-1H-pyrazole-4-carbonitrile] cannot be ordered by pIC50: greater than 7.00 for the first, greater than 7.00 for the second.

CCC[C@@]1(O)CC[C@@]2(COC)[C@H](CC[C@H]3[C@@H]4CC[C@H]([C@@H](C)Cn5nnc(C)n5)[C@@]4(C)CC[C@@H]32)C1 [Example 319, (3R,5R,8S,9S,10R,13S,14S,17R)-10-(methoxymethyl)-13-methyl-17-((R)-1-(5-methyl-2H-tetrazol-2-yl)propan-2-yl)-3-propylhexadecahydro-1H-cyclopenta[a]phenanthren-3-ol] and CCC[C@@]1(O)CC[C@@]2(COC)[C@H](CC[C@H]3[C@@H]4CC[C@H]([C@@H](C)Cn5nnnc5C)[C@@]4(C)CC[C@@H]32)C1 [Example 321, (3R,5R,8S,9S,10R,13S,14S,17R)-10-(methoxymethyl)-13-methyl-17-((R)-1-(5-methyl-1H-tetrazol-1-yl)propan-2-yl)-3-propylhexadecahydro-1H-cyclopenta[a]phenanthren-3-ol] cannot be ordered by pIC50: greater than 7.00 for the first, greater than 7.00 for the second.

CCC[C@@]1(O)CC[C@@]2(COC)[C@H](CC[C@H]3[C@@H]4CC[C@H]([C@H](C)Cn5nnnc5C)[C@@]4(C)CC[C@@H]32)C1 [Example 322, (3R,5R,8S,9S,10R,13S,14S,17R)-10-(methoxymethyl)-13-methyl-17-((S)-1-(5-methyl-1H-tetrazol-1-yl)propan-2-yl)-3-propylhexadecahydro-1H-cyclopenta[a]phenanthren-3-ol] and CCC[C@@]1(O)CC[C@H]2[C@H](CC[C@@H]3[C@@H]2CC[C@]2(C)[C@@H]([C@@H](C)Cn4nnnc4C)CC[C@@H]32)C1 [Example 324, (3R,5R,8R,9R,10S,13S,14S,17R)-13-methyl-17-(1-(5-methyl-1H-tetrazol-1-yl)propan-2-yl)-3-propylhexadecahydro-1H-cyclopenta[a]phenanthren-3-ol] cannot be ordered by pIC50: greater than 7.00 for the first, greater than 7.00 for the second.

First: COC[C@@]1(O)CC[C@@]2(C)[C@H](CC[C@@H]3[C@@H]2[C@@H](O)C[C@]2(C)[C@@H]([C@H](C)Cn4cc(C#N)cn4)CC[C@@H]32)C1 [Example 328, 1-((S)-2-((3R,5R,8S,9S,10S,11S,13S,14S,17R)-3,11-dihydroxy-3-(methoxymethyl)-10,13-dimethylhexadecahydro-1H-cyclopenta[a]phenanthren-17-yl)propyl)-1H-pyrazole-4-carbonitrile]
Second: CCC[C@@]1(O)CC[C@H]2[C@@H](CC[C@@H]3[C@@H]2CC[C@]2(C)[C@@H]([C@@H](C)Cn4nnc(C)n4)CC[C@@H]32)C1 [Example 329, (3R,5S,8R,9R,10S,13S,14S,17R)-13-methyl-17-((R)-1-(5-methyl-2H-tetrazol-2-yl)propan-2-yl)-3-propylhexadecahydro-1H-cyclopenta[a]phenanthren-3-ol]
The pIC50 of the first is higher: 6.00 to 7.00 for the first, no more than 5.00 for the second.
